Experimental data published in PubChem BioAssay (NCI).
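96-well plates; 48 h exposure; 5 concentrations. Endpoints by linear interpolation between flanking doses. Not reached: highest tested concentration assigned. GI50 = concentration required for 50% inhibition of growth. TGI: total growth inhibition.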 Where a SMILES comes first, the peptide text is derived from it.

What was measured:
Experiment in all cases: NCI anticancer screen, dose series, 48 h
M14 melanoma = tested on: M14 melanoma
LOX IMVI melanoma = tested on: LOX IMVI melanoma
HS 578T breast = tested on: HS 578T breast
MALME-3M melanoma = tested on: MALME-3M melanoma
SK-MEL-5 melanoma = tested on: SK-MEL-5 melanoma
A498 renal = tested on: A498 renal
UACC-62 melanoma = tested on: UACC-62 melanoma
NCI/ADR-RES ovarian = tested on: NCI/ADR-RES ovarian
SF-268 CNS = tested on: SF-268 CNS
MOLT-4 leukemia = tested on: MOLT-4 leukemia
NCI-H226 lung = tested on: NCI-H226 lung
SR leukemia = tested on: SR leukemia
PC-3 prostate = tested on: PC-3 prostate
EKVX NSCLC = tested on: EKVX NSCLC
SK-OV-3 ovarian = tested on: SK-OV-3 ovarian
CCRF-CEM leukemia = tested on: CCRF-CEM leukemia
OVCAR-4 ovarian = tested on: OVCAR-4 ovarian
HCT-116 colon = tested on: HCT-116 colon
MDA-MB-231 breast = tested on: MDA-MB-231 breast
K-562 leukemia = tested on: K-562 leukemia
TK-10 renal = tested on: TK-10 renal
SW-620 colon = tested on: SW-620 colon
NCI-H23 lung = tested on: NCI-H23 lung
MDA-MB-435 = tested on: MDA-MB-435
HT29 colon = tested on: HT29 colon
BT-549 breast = tested on: BT-549 breast
COLO 205 colon = tested on: COLO 205 colon
SK-MEL-2 melanoma = tested on: SK-MEL-2 melanoma
786-0 renal = tested on: 786-0 renal
RXF 393 renal = tested on: RXF 393 renal
T-47D breast = tested on: T-47D breast
ACHN renal = tested on: ACHN renal
OVCAR-5 ovarian = tested on: OVCAR-5 ovarian
HOP-92 NSCLC = tested on: HOP-92 NSCLC
CAKI-1 renal = tested on: CAKI-1 renal
SK-MEL-28 melanoma = tested on: SK-MEL-28 melanoma
KM12 colon = tested on: KM12 colon
UO-31 renal = tested on: UO-31 renal
NCI-H460 lung = tested on: NCI-H460 lung
SF-539 CNS = tested on: SF-539 CNS
NCI-H522 lung = tested on: NCI-H522 lung
HCC-2998 colon = tested on: HCC-2998 colon
A549 NSCLC = tested on: A549 NSCLC
SF-295 CNS = tested on: SF-295 CNS
SNB-75 CNS = tested on: SNB-75 CNS
HCT-15 colon = tested on: HCT-15 colon
HOP-62 NSCLC = tested on: HOP-62 NSCLC
RPMI-8226 leukemia = tested on: RPMI-8226 leukemia
U251 CNS = tested on: U251 CNS
HL-60(TB) leukemia = tested on: HL-60(TB) leukemia
MCF7 breast = tested on: MCF7 breast
OVCAR-3 ovarian = tested on: OVCAR-3 ovarian
OVCAR-8 ovarian = tested on: OVCAR-8 ovarian
IGROV1 ovarian = tested on: IGROV1 ovarian
DU-145 prostate = tested on: DU-145 prostate
SNB-19 CNS = tested on: SNB-19 CNS
UACC-257 melanoma = tested on: UACC-257 melanoma
SN12C renal = tested on: SN12C renal

CCC(C)C1NC(=O)C(CCCCN)NC(=O)C(CCCCN)NC(=O)C(CC(C)C)NC(=O)C(CCCCN)NC(=O)C(C(C)CC)NC(=O)C(C(C)C)NC(=O)C(C(C)CC)NC(=O)C(CCCCN)NC(=O)C(CCCCN)NC(=O)C(C)NC(=O)C(CCCCN)NC(=O)C(CC(C)C)NC1=O (stereo unspecified) (cyclo(AKKIVIKLKKILK); configuration not given here)
GI50 (M14 melanoma): 1600 nM
TGI (M14 melanoma): 3460 nM
GI50 (LOX IMVI melanoma): 1730 nM
TGI (LOX IMVI melanoma): 3200 nM
GI50 (HS 578T breast): 2000 nM
TGI (HS 578T breast): 5660 nM
GI50 (MALME-3M melanoma): 1450 nM
TGI (MALME-3M melanoma): 3300 nM
GI50 (SK-MEL-5 melanoma): 1010 nM
TGI (SK-MEL-5 melanoma): 2190 nM
GI50 (A498 renal): 1660 nM
TGI (A498 renal): 3840 nM
GI50 (UACC-62 melanoma): 1270 nM
TGI (UACC-62 melanoma): 2940 nM
GI50 (NCI/ADR-RES ovarian): 1070 nM
TGI (NCI/ADR-RES ovarian): 5610 nM
GI50 (SF-268 CNS): 2590 nM
TGI (SF-268 CNS): 11300 nM
GI50 (MOLT-4 leukemia): 1700 nM
TGI (MOLT-4 leukemia): 5290 nM
GI50 (NCI-H226 lung): 1210 nM
TGI (NCI-H226 lung): 3370 nM
GI50 (SR leukemia): 1860 nM
TGI (SR leukemia): 5020 nM
GI50 (PC-3 prostate): 779 nM
TGI (PC-3 prostate): 8520 nM
GI50 (EKVX NSCLC): 1330 nM
TGI (EKVX NSCLC): 6000 nM
GI50 (SK-OV-3 ovarian): 2090 nM
TGI (SK-OV-3 ovarian): 5880 nM
GI50 (CCRF-CEM leukemia): 2150 nM
TGI (CCRF-CEM leukemia): 9300 nM
GI50 (OVCAR-4 ovarian): 1280 nM
TGI (OVCAR-4 ovarian): 13400 nM
GI50 (HCT-116 colon): 1460 nM
TGI (HCT-116 colon): 3070 nM
GI50 (MDA-MB-231 breast): 1720 nM
TGI (MDA-MB-231 breast): 4250 nM
GI50 (K-562 leukemia): 1310 nM
TGI (K-562 leukemia): 5470 nM
GI50 (TK-10 renal): 1870 nM
TGI (TK-10 renal): 4630 nM
GI50 (SW-620 colon): 1750 nM
TGI (SW-620 colon): 3590 nM
GI50 (NCI-H23 lung): 704 nM
TGI (NCI-H23 lung): 4450 nM
GI50 (MDA-MB-435): 1770 nM
TGI (MDA-MB-435): 3800 nM
GI50 (HT29 colon): 2930 nM
TGI (HT29 colon): 10800 nM
GI50 (BT-549 breast): 1790 nM
TGI (BT-549 breast): 3960 nM
GI50 (COLO 205 colon): 1740 nM
TGI (COLO 205 colon): 3650 nM
GI50 (SK-MEL-2 melanoma): 2060 nM
TGI (SK-MEL-2 melanoma): 4880 nM
GI50 (786-0 renal): 1800 nM
TGI (786-0 renal): 3640 nM
GI50 (RXF 393 renal): 1490 nM
TGI (RXF 393 renal): 3010 nM
GI50 (T-47D breast): 1690 nM
TGI (T-47D breast): 6700 nM
GI50 (ACHN renal): 2360 nM
TGI (ACHN renal): 6840 nM
GI50 (OVCAR-5 ovarian): 2330 nM
TGI (OVCAR-5 ovarian): 8180 nM
GI50 (HOP-92 NSCLC): 1270 nM
TGI (HOP-92 NSCLC): 3240 nM
GI50 (CAKI-1 renal): 1560 nM
TGI (CAKI-1 renal): 3760 nM
GI50 (SK-MEL-28 melanoma): 1970 nM
TGI (SK-MEL-28 melanoma): 4610 nM
GI50 (KM12 colon): 2550 nM
TGI (KM12 colon): 8090 nM
GI50 (UO-31 renal): 1380 nM
TGI (UO-31 renal): 2740 nM
GI50 (NCI-H460 lung): 1850 nM
TGI (NCI-H460 lung): 4280 nM
GI50 (SF-539 CNS): 2050 nM
TGI (SF-539 CNS): 4380 nM
GI50 (NCI-H522 lung): 1740 nM
TGI (NCI-H522 lung): 4700 nM
GI50 (HCC-2998 colon): 2650 nM
TGI (HCC-2998 colon): 8520 nM
GI50 (A549 NSCLC): 2260 nM
TGI (A549 NSCLC): 9640 nM
GI50 (SF-295 CNS): 1140 nM
TGI (SF-295 CNS): 2520 nM
GI50 (SNB-75 CNS): 1720 nM
TGI (SNB-75 CNS): 4350 nM
GI50 (HCT-15 colon): 1600 nM
TGI (HCT-15 colon): 3270 nM
GI50 (HOP-62 NSCLC): 1760 nM
TGI (HOP-62 NSCLC): 3970 nM
GI50 (RPMI-8226 leukemia): 1110 nM
TGI (RPMI-8226 leukemia): 3740 nM
GI50 (U251 CNS): 1590 nM
TGI (U251 CNS): 3250 nM
GI50 (HL-60(TB) leukemia): 2420 nM
TGI (HL-60(TB) leukemia): 6930 nM
GI50 (MCF7 breast): 1870 nM
TGI (MCF7 breast): 5980 nM
GI50 (OVCAR-3 ovarian): 1620 nM
TGI (OVCAR-3 ovarian): 3630 nM
GI50 (OVCAR-8 ovarian): 1730 nM
TGI (OVCAR-8 ovarian): 6400 nM
GI50 (IGROV1 ovarian): 1970 nM
TGI (IGROV1 ovarian): 6180 nM
GI50 (DU-145 prostate): 2990 nM
TGI (DU-145 prostate): 10700 nM
GI50 (SNB-19 CNS): 2930 nM
TGI (SNB-19 CNS): 14000 nM
GI50 (UACC-257 melanoma): 2420 nM
TGI (UACC-257 melanoma): 7570 nM
GI50 (SN12C renal): 1940 nM
TGI (SN12C renal): 6460 nM
